# How the values were obtained:
# [1] = biological target: hNox4 (Homo sapiens (Human), UniProt Q9NPH5); experiment: hNox4 membrane assay (Amplex Red, cell-free); assay type: biochemical
# Method: Reactive oxygen produced in whole cells or in membrane preparation of Nox1, Nox3, Nox4, Nox5 and xanthine oxidase and glucose oxidase were determined using Amplex Red as detection probe of formed H2O2. Amplex Red (10-acetyl-3,7-dihydroxyphenoxazine) in combination with HRP and co-factors reacts with H2O2 in a 1:1 stoichiometry to form a highly fluorescent resorufin excitated at 544 nm producing emission at 590 nm.
# Membranes from transfected cells overexpressing Nox1 (CHO), Nox2 (PLB), Nox3 (HEK), Nox4 (HEK) or Nox5 (HEK) were prepared as described in Pailcz et al., 2001, J. Biol. Chem, 76, 3090-3097. Cells were suspended and homogenized in sonication buffer containing PBS, sucrose (11%), NaCl (120 mM) and EGTA (1 mM) supplemented with protease inhibitors and further processed and then broken by sonication cooled with an ice bath. Then the sample was centrifuged at 200×g for 10 min. Supernatant was carefully added on top of a 17/40% discontinuous sucrose gradient and centrifuged at 150 000×g for 60 min. Membranes containing Nox isoforms were collected at the 17/40% sucrose interface as described by Jaquet V, et al., Br J Pharmacol 2011; 164:507-520. For the Nox isoforms Nox1, Nox2, Nox3 a subunit-specific cell-free, membrane-based system has been developed and recombinant proteins of the subunits were added to receive activation of the Nox-iso forms in the cell-free assay. The Amplex Red assay was performed in black 96-well flat bottom plates. Assay reagents including HRP ([…]), FAD (6 μM), phosphatidic acid (15 μM) and Amplex Red (50 μM) were added followed by NADPH (30 μM) to initiate production of hydrogen peroxide. The production of hydrogen peroxide was followed by use of a fluorescence plate reader, read at 37° C. every minute between 30-60 minutes.
# [2] = biological target: Nox4 expressing HEK293 cells (Homo sapiens (Human), UniProt Q9NPH5); experiment: Oxygen consumption in Nox4 expressing HEK293 cells; assay type: cell-based
# [3] = test system: human brain micro-vascular endothelial cells; experiment: In vitro stroke model: endothelial cells subjected to hypoxia and glucose deprivation; assay type: cell-based; settings: hypoxia and glucose deprivation 5 h (Example 44: 6 h), viability after 24 hours of culture
# Method: (§1) FIG. 1 is a bar chart showing cell viability as a ratio of basal cell viability of human brain microvascular endothelial cells subjected to hypoxia and starvation (OGD: oxygen and glucose deprivation) for 5 h and then cultured for 24 h in the absence or presence of Example 11 at a concentration of 2, 10 or 20 μM. Basal=no hypoxia or starvation, cells cultured in the presence of culture medium only. OGD=5 h of hypoxia or starvation, cells cultured in the presence of culture medium only.
# as §1, with “2” for “1”, “(OGD)” for “(OGD: oxygen and glucose deprivation)”, “17” for “11”, “0.3, 3 or” for “2,”, “10” for “10 or 20”
# FIG. 3 is a bar chart showing cell viability as a ratio of basal cell viability of human brain microvascular endothelial cells subjected to hypoxia and starvation (OGD: oxygen and glucose deprivation) for 6 h and then cultured for 24 h in the absence or presence of Example 44 at a concentration of from 0.6 to 9.6 μM. Basal=no hypoxia or starvation, cells cultured in the presence of culture medium only. OGD=6 h of hypoxia or starvation, cells cultured in the presence of culture medium only (*p<0.05, ***p<0.001).
# (§2) Hippocampal brain slices and human brain micro-vascular endothelial cells were subjected to hypoxia and glucose deprivation (starvation) for 5 hours and were tested for viability after 24 hours of culture in the presence of Example 11 or Example 17 at different concentrations. Additionally, human brain micro-vascular endothelial cells were subjected to hypoxia and glucose deprivation (starvation) for 6 hours and were tested for viability after 24 hours of culture in the presence of Example 44 at various concentrations.
# [4] = test system: Hippocampal brain slices; experiment: In vitro stroke model: hippocampal brain slices subjected to hypoxia and glucose deprivation; assay type: cell-based; settings: hypoxia and glucose deprivation 5 hours, viability after 24 hours of culture
# Method: (§3) FIG. 4 is a bar chart showing cell viability (in % of basal cell viability) of hippocampal brain slices subjected to hypoxia and starvation for 5 h and then cultured for 24 h in the absence (OGD) or presence of Example 11 at a concentration of 0.3 μM, 3 μM, or 10 μM. Basal=no hypoxia or starvation, cells cultured in the presence of culture medium only. OGD=5 h of hypoxia or starvation, cells cultured in the presence of culture medium only.
# as §3, with “FIG. 5” for “FIG. 4”, “Example 17” for “Example 11”, “of 0.3,” for “of 0.3 μM,”, “3” for “3 μM,”
# as §2
# [5] = test system: rat lens epithelial explants; experiment: TGFβ-induced lens epithelial to mesenchymal transition (EMT) in rat lens epithelial explants; assay type: cell-based; settings: co-treatment with TGFβ, Example 11 2.4 μM, Example 17 0.3 μM; for progression of TGFβ-induced EMT: 5 days culture
# Method: Ocular tissues were collected from postnatal-day-21 albino Wistar rats (Rattus norvegicus) that were sacrificed by asphyxiation and subsequent cervical dislocation.
# Lens epithelial explants were prepared as previously described (Wang Q, et al., Investigative ophthalmology & visual science. 2010; 51(7):3599-610) and cultured in Medium 199 (M199) with Earle's salts (Life Technologies, USA), supplemented with 50 μg/mL L-glutamine, 50 IU/mL penicillin/50 μg/mL streptomycin (Thermo Scientific, USA), 2.5 μg/mL Amphostat B (Thermo Scientific, USA) and 0.1% bovine serum albumin (BSA) (Sigma, USA). M199 was equilibrated at 37° C., 5% CO2. To induce EMT, recombinant TGF-β2 was added to media in each culture dish at a working concentration of […] (R&D Systems, USA). Prior to the addition of TGF-β2, some explants were pre-treated for 30 minutes with Example 11 or Example 17, at working concentrations of 2.4 μM and 0.3 μM, respectively. The progression of EMT in live cells was observed and captured using phase-contrast microscopy (Olympus CK2, Japan) and a digital camera (Leica DFC-280, Germany). Percentage cell loss quantification was performed using the thresholding function of ImageJ (NIH), such that cells could be distinguished from bare lens capsule.
# Sequence of hNox4 (Q9NPH5 whole entry): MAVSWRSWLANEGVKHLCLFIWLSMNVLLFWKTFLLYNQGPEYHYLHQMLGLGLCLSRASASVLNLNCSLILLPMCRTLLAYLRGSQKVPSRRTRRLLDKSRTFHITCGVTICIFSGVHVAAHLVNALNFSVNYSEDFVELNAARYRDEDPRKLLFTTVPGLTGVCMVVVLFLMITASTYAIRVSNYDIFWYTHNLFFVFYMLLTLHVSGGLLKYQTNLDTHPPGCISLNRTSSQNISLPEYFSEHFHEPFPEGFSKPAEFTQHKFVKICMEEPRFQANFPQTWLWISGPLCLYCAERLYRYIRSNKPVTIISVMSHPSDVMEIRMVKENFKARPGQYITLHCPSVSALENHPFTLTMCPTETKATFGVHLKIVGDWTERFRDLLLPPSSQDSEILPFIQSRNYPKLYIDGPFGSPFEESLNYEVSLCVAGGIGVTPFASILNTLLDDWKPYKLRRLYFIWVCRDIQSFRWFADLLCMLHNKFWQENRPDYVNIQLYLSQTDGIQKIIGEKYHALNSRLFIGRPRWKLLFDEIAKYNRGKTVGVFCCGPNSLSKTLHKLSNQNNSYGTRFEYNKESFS
# Sequence of hNox4 (P13498 2-195 partner): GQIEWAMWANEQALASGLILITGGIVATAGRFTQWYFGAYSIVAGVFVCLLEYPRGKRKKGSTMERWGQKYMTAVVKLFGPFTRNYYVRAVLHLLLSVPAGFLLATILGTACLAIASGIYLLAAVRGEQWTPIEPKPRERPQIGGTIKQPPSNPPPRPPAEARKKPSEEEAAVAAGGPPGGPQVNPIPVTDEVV
# Sequence of Nox4 expressing HEK293 cells (Q9NPH5 whole entry): as the sequence (Q9NPH5 whole entry) above
# Sequence of Nox4 expressing HEK293 cells (P13498 2-195 partner): as the sequence (P13498 2-195 partner) above
SMILES,Ki [1],Inhibition of oxygen consumption in Nox4 expressing HEK293 cells [2],neuroprotective effect (cell viability) [3],neuroprotective effect (cell viability) [4],progression of TGFβ-induced EMT [5],morphology of remaining cells by day 5 [5]
"Cc1ccccc1CCNS(=O)(=O)c1c(C)cccc1Cl [Example 11, 2-chloro-6-methyl-N-[2-(2-methylphenyl)ethyl]benzene-1-sulfonamide]",4.4 µM,yes,neuroprotective effect,neuroprotective effect,a similar effect was obtained,some of the remaining cells appeared epithelial-like
"Cc1ccccc1CCNS(=O)(=O)c1c(Cl)cc(Br)cc1Cl [Example 17, 4-bromo-2,6-dichloro-N-[2-(2-methylphenyl)ethyl]benzene-1-sulfonamide]",0.56 µM,yes,neuroprotective effect,neuroprotective effect,appeared to delay the progression of EMT,some of the remaining cells appeared epithelial-like
"O=S(=O)(NCCc1ccccc1Cl)c1c(Cl)cc(C2CC2)cc1Cl [Example 26, 2,6-dichloro-N-[2-(2-chlorophenyl)ethyl]-4-cyclopropylbenzene-1-sulfonamide]",2.2 µM,yes,,,,
"Cc1cc(Cl)c(S(=O)(=O)NCCc2ccccc2O)c(C)c1O [Example 44, 6-chloro-3-hydroxy-N-[2-(2-hydroxyphenyl)ethyl]-2,4-dimethyl-benzenesulfonamide]",,,neuroprotective effect,,,
